Read-outs that look alike come from different tables or passages of the source.
Key:
[1] = target: T1, purified DDK (Homo sapiens, UniProt O00311); test: In vitro (γ)-32P ATP DDK kinase assay (DDK auto-phosphorylation); format: biochemical; conditions: increasing inhibitor concentrations
T1 construct: His6-Smt3 (SUMO) (N, cleaved yes); made in house; host or cells: E. coli BL21-RIPL (pKT37, pETDuet-1 vector)

[2] = tested on: HCC1954 cells; test: Cell viability, CellTiter-Glo; format: cell-based; conditions: Homo sapiens, HCC1954, 72 h
[3] = tested on: Colo-205 cells; test: Cell viability, CellTiter-Glo; format: cell-based; conditions: Homo sapiens, COLO 205, 72 h
[4] = tested on: HCT116 (p53+/+) cells; test: Cell viability, CellTiter-Glo; format: cell-based
[5] = tested on: HCT116 (p53-/-) cells; test: Cell viability, CellTiter-Glo; format: cell-based; conditions: Homo sapiens, HCT-116, 72 hrs post drug addition
[6] = tested on: Eight tumor cell lines; test: Cell viability at 5 µM inhibitor, cell line panel; format: cell-based; conditions: 72 hrs, relative to vehicle controls
[7] = tested on: HCC1954 cells; test: Caspase 3/7 activity (apoptosis); format: cell-based; conditions: HCC1954, 24 hours
Description: Caspase 3/7 activity and viable cell number were then measured using the Caspase-Glo 3/7 assay (Promega) and CellTiter-Glo assay (Promega), respectively.

[8] = tested on: Mcm2 Serine 53 phosphorylation in HCC1954 cells; test: Immunoblot of DDK-dependent Mcm2 phosphorylation; format: cell-based; conditions: HCC1954, 5 µM
Description: Whole cell extracts were prepared by re-suspending the pellets in RIPA buffer (150 mM NaCl, 1% NP-40, 0.5% sodium deoxycholate, 0.1% SDS, 50 mM Tris HCl, pH 8) containing protease inhibitors (100 µM PMSF, 1 mM Benzamide, 2.5 µg/ml Pepstatin A, 10 µg/ml Leupeptin, and 10 µg/ml Aprotinin) and phosphatase inhibitors (1 mM each NaF, Na3VO4 and Na4P2O7). Protein concentration was measured using the BCA protein assay kit (Pierce) according to manufacturer's protocol. Equal amounts of protein were subjected to SDS-PAGE and transferred to a nitrocellulose membrane (Millipore). Transfer efficiency and equal loading was confirmed by Ponceau S staining. Following primary and secondary antibody treatments, proteins were visualized using SuperSignal West Pico solutions (Thermo Scientific). Anti-Mcm2 and anti-S53-phospho-Mcm2 antibodies were purchased from Bethyl Laboratories; anti-β-actin was from Sigma; anti-mouse and anti-rabbit HRP antibodies were from GE Healthcare; and anti-Cdc7 and anti-Dbf4 antibodies were described previously.
Effective cellular uptake of the DDK inhibitor should compromise DDK activity in vivo. Among the many targets of DDK are components of the replicative Mcm2–7 helicase. Serine 53 of Mcm2 subunit is a well-characterized target site for DDK mediated phosphorylation. We quantitated levels of phosphorylation on this site as a measure of DDK activity in vivo. […] Cells were then harvested at 0, 24, 48, and 72 hours post drug addition to measure viable cells and Mcm2 phosphorylation by immunoblotting.

[9] = tested on: Mcm2 phosphorylation in Colo-205 cells; test: Immunoblot of DDK-dependent Mcm2 phosphorylation; format: cell-based; conditions: Colo-205, 5 µM, 24 hours
[10] = tested on: Colo-205 cells; conditions: Colo-205, 24 hours
[11] = tested on: DDK; conditions: purified DDK ref 49; read-out: DDK IC50 (in vitro); cited from earlier work
[12] = tested on: Colo-205 cells; set-up: method as in PMID 22560567; conditions: Colo-205 ref 49; read-out: Cellular Proliferation IC50; cited from earlier work
[13] = tested on: panel of 100 kinases; set-up: method as in PMID 22560567; conditions: panel of 100 kinases ref 49; cited from earlier work

T1 sequence (O00311 whole entry): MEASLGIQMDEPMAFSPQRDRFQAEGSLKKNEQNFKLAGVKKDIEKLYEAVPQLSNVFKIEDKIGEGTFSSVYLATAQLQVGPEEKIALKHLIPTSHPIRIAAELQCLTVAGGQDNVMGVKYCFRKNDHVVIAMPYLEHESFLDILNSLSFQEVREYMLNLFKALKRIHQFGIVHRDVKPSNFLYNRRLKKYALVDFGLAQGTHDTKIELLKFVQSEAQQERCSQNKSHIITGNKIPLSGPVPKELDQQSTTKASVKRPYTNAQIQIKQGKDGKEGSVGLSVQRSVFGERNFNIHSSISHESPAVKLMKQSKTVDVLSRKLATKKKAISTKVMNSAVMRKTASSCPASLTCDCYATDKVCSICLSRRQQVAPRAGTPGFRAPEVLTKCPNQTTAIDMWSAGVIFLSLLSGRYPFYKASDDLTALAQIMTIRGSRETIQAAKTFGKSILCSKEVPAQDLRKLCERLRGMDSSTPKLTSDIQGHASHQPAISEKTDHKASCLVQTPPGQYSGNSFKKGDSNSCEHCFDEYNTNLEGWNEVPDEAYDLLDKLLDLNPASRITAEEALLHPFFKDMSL
T1 sequence (Q9UBU7 341-674 partner limits assumed): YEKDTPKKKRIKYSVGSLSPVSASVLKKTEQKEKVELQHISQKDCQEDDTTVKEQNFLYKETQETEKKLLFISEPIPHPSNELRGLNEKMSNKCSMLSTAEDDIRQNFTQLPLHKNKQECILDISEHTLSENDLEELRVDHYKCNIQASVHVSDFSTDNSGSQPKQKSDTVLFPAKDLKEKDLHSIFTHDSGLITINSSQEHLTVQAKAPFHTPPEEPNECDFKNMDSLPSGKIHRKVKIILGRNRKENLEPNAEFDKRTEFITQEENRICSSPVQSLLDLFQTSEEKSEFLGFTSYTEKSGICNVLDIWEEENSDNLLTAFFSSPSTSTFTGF

O=c1[nH]c([C@@H]2CCCN2)nc2c1oc1ccc(Cl)cc12 [XL413, (S)-8-chloro-2-(pyrrolidin-2-yl)benzofuro[3,2-d]pyrimidin-4(3H)-one]
IC50 [1]: 22.7 nM
IC50 ([2]; HCC1954, 72 hrs post drug addition): 22900 nM
IC50 ([2]; XL413 from commercial supplier MedKoo): 22400 nM
IC50 ([3]; Colo-205, 72 hrs post drug addition): 1100 nM
IC50 ([3]; Colo-205, 72 hrs, XL413 from commercial supplier MedKoo): 600 nM
IC50 ([4]; Homo sapiens, HCT-116, HCT116 (p53+/+), 72 hrs post drug addition): 28700 nM
IC50 higher than PHA-767491 ([4]; two additional colorectal tumor cell lines (HCT116 p53+/+ and p53-/-)): 40- to 60 fold
IC50 [5]: 36600 nM
Anti-proliferative activity [6]: anti-proliferative only in the Colo-205 cells
Apoptosis induction (Caspase 3/7 activity) [7]: induced apoptosis only in the Colo-205 cells
Mcm2 phosphorylation ([8]; 24 hrs): did not inhibit Mcm2 phosphorylation
Mcm2 phosphorylation ([8]; 72 hours): only a modest decrease in Mcm2 phosphorylation
Mcm2 phosphorylation [9]: completely abolished Mcm2 phosphorylation
Apoptosis induction (Caspase 3/7 activity) [10]: induced apoptosis only in the Colo-205 cells
IC50 [11]: 3.4 nM
IC50 [12]: 2690 nM
Selectivity for DDK [13]: highly selective for DDK

Reference: publication PMC4239038, “The Potent Cdc7-Dbf4 (DDK) Kinase Inhibitor XL413 Has Limited Activity in Many Cancer Cell Lines and Discovery of Potential New DDK Inhibitor Scaffolds” (PLoS ONE, 2014)
